Assay results: PubChem BioAssay (NCI)
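These data come from cells grown in 96-well plates and exposed to compound for 48 hours at five concentrations. Abbreviation: GI50, concentration required for 50% inhibition of growth. TGI denotes the concentration required for complete inhibition of growth.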

Legend:
Assay in all cases: NCI anticancer screen, dose series, 48 h
SF-295 CNS = test system: SF-295 CNS
UO-31 renal = test system: UO-31 renal
LOX IMVI melanoma = test system: LOX IMVI melanoma
SNB-75 CNS = test system: SNB-75 CNS
UACC-62 melanoma = test system: UACC-62 melanoma
HOP-62 NSCLC = test system: HOP-62 NSCLC
IGROV1 ovarian = test system: IGROV1 ovarian
HT29 colon = test system: HT29 colon
HCC-2998 colon = test system: HCC-2998 colon
HOP-92 NSCLC = test system: HOP-92 NSCLC

COc1ccc(N/N=C(\CCN(C)C)c2ccccc2)cc1
TGI (SF-295 CNS): 1.65 µM | TGI (UO-31 renal): 3.99 µM | TGI (LOX IMVI melanoma): 7.74 µM | TGI (SNB-75 CNS): 53 µM | TGI (UACC-62 melanoma): 6.23 µM | TGI (HOP-62 NSCLC): 9.77 µM | TGI (IGROV1 ovarian): 17.8 µM | TGI (HT29 colon): 23.6 µM

O=C1c2ccccc2NC1(c1ccccc1)c1c(-c2ccccc2)[nH]c2ccccc12 (stereo not drawn)
TGI (HCC-2998 colon): > 100 µM | TGI (SF-295 CNS): > 100 µM | TGI (UO-31 renal): > 100 µM | TGI (SNB-75 CNS): > 100 µM | TGI (UACC-62 melanoma): > 100 µM | TGI (HOP-62 NSCLC): > 100 µM | TGI (HOP-92 NSCLC): > 100 µM | TGI (IGROV1 ovarian): > 100 µM | TGI (HT29 colon): > 100 µM

CCCCCCCCCCCCCCCC[N+](C)(CCO)Cc1cnc[nH]1 (stereo not drawn)
GI50 (HCC-2998 colon): 1.14 µM | TGI (HCC-2998 colon): 2.73 µM | GI50 (SF-295 CNS): 1.18 µM | TGI (SF-295 CNS): 4.01 µM | GI50 (UO-31 renal): 23 µM | TGI (UO-31 renal): > 100 µM | GI50 (SNB-75 CNS): 1.11 µM | TGI (SNB-75 CNS): 5.86 µM | GI50 (HOP-62 NSCLC): 0.456 µM | TGI (HOP-62 NSCLC): 1.68 µM | GI50 (HOP-92 NSCLC): 0.922 µM | TGI (HOP-92 NSCLC): 3.82 µM | GI50 (HT29 colon): 0.382 µM | TGI (HT29 colon): 12.3 µM

COc1ccc(NC(=O)CC/C(CC(=O)C(C)(C)C)=N\NC(=O)C(N)=O)cc1
TGI (HCC-2998 colon): > 100 µM | TGI (SF-295 CNS): > 100 µM | TGI (UO-31 renal): > 100 µM | TGI (LOX IMVI melanoma): > 100 µM | TGI (UACC-62 melanoma): > 100 µM | TGI (HOP-62 NSCLC): > 100 µM | TGI (HOP-92 NSCLC): > 100 µM | TGI (IGROV1 ovarian): > 100 µM | TGI (HT29 colon): > 100 µM

O=Cc1ccc(-c2ccc(-c3nc4ccccc4o3)cc2)s1
GI50 (HCC-2998 colon): 45.2 µM | TGI (HCC-2998 colon): > 100 µM | GI50 (SF-295 CNS): 24.2 µM | TGI (SF-295 CNS): 87.8 µM | GI50 (UO-31 renal): 38.5 µM | TGI (UO-31 renal): > 100 µM | GI50 (LOX IMVI melanoma): 16.7 µM | TGI (LOX IMVI melanoma): 36 µM | GI50 (UACC-62 melanoma): 30.7 µM | TGI (UACC-62 melanoma): 98.8 µM | GI50 (HOP-62 NSCLC): 27.9 µM | TGI (HOP-62 NSCLC): 82 µM | GI50 (HOP-92 NSCLC): > 100 µM | TGI (HOP-92 NSCLC): > 100 µM | GI50 (IGROV1 ovarian): 30.1 µM | TGI (IGROV1 ovarian): > 100 µM | GI50 (HT29 colon): 53.8 µM | TGI (HT29 colon): > 100 µM

Cc1[nH]c2ccccc2c1-c1cc(-c2cc(-c3c(C)[nH]c4ccccc34)nc(N)n2)nc(N)n1
TGI (SF-295 CNS): > 100 µM | TGI (UO-31 renal): > 100 µM | TGI (LOX IMVI melanoma): > 100 µM | TGI (UACC-62 melanoma): > 100 µM | TGI (HOP-62 NSCLC): > 100 µM | TGI (HOP-92 NSCLC): > 100 µM | TGI (IGROV1 ovarian): > 100 µM | TGI (HT29 colon): > 100 µM

Cc1cc2cn3c4ccc(O)cc4[nH]c(=O)c3c2cc1C
GI50 (HCC-2998 colon): 0.0679 µM | TGI (HCC-2998 colon): 1.3 µM | GI50 (SF-295 CNS): 0.0356 µM | TGI (SF-295 CNS): 0.221 µM | GI50 (UO-31 renal): 0.0228 µM | TGI (UO-31 renal): 1.84 µM | GI50 (UACC-62 melanoma): 0.0411 µM | TGI (UACC-62 melanoma): 1.78 µM | GI50 (HOP-62 NSCLC): 0.0415 µM | TGI (HOP-62 NSCLC): 1.33 µM | GI50 (HOP-92 NSCLC): 0.0723 µM | TGI (HOP-92 NSCLC): 1.95 µM

COc1ccc(Cc2cc3c(cc2OCC(=O)O)OCO3)cc1
TGI (HCC-2998 colon): > 100 µM | TGI (SF-295 CNS): > 100 µM | TGI (UO-31 renal): > 100 µM | TGI (LOX IMVI melanoma): > 100 µM | TGI (UACC-62 melanoma): > 100 µM | TGI (HOP-62 NSCLC): > 100 µM | TGI (HOP-92 NSCLC): > 100 µM | TGI (IGROV1 ovarian): > 100 µM | TGI (HT29 colon): > 100 µM

COC(=O)NC1(NC(=O)OC)NC(=O)c2cc(OC)c(OC)c(OC)c2N1
TGI (HCC-2998 colon): > 100 µM | TGI (SF-295 CNS): > 100 µM | TGI (UO-31 renal): > 100 µM | TGI (SNB-75 CNS): 38.8 µM | TGI (UACC-62 melanoma): > 100 µM | TGI (HOP-62 NSCLC): > 100 µM | TGI (IGROV1 ovarian): > 100 µM | TGI (HT29 colon): > 100 µM

COC(=O)CCC(=O)Nc1cc(Cl)ccc1Cl
TGI (HCC-2998 colon): > 100 µM | TGI (SF-295 CNS): > 100 µM | TGI (UO-31 renal): > 100 µM | TGI (LOX IMVI melanoma): > 100 µM | TGI (UACC-62 melanoma): > 100 µM | TGI (HOP-62 NSCLC): > 100 µM | TGI (HOP-92 NSCLC): > 100 µM | TGI (IGROV1 ovarian): > 100 µM | TGI (HT29 colon): > 100 µM

CCN1C2=NCCN2S(=O)(=O)c2ccccc21
TGI (HCC-2998 colon): > 100 µM | TGI (SF-295 CNS): > 100 µM | TGI (UO-31 renal): > 100 µM | TGI (LOX IMVI melanoma): > 100 µM | TGI (UACC-62 melanoma): > 100 µM | TGI (HOP-62 NSCLC): > 100 µM | TGI (HOP-92 NSCLC): > 100 µM | TGI (IGROV1 ovarian): > 100 µM | TGI (HT29 colon): > 100 µM

O=C(O)c1cc2ccccc2c(N=Nc2cc(C(F)(F)F)ccc2Cl)c1O
TGI (HCC-2998 colon): > 100 µM | TGI (SF-295 CNS): > 100 µM | TGI (UO-31 renal): > 100 µM | TGI (SNB-75 CNS): 0.0907 µM | TGI (HOP-62 NSCLC): > 100 µM | TGI (HOP-92 NSCLC): > 100 µM | TGI (IGROV1 ovarian): > 100 µM | TGI (HT29 colon): > 100 µM

O=c1c(O)cccc2cc(O)c(O)c(O)c12
GI50 (HCC-2998 colon): > 100 µM | TGI (HCC-2998 colon): > 100 µM | GI50 (SF-295 CNS): 5.28 µM | TGI (SF-295 CNS): > 100 µM | GI50 (UO-31 renal): 2.54 µM | TGI (UO-31 renal): > 100 µM | GI50 (LOX IMVI melanoma): 13.2 µM | TGI (LOX IMVI melanoma): > 100 µM | GI50 (UACC-62 melanoma): 6.4 µM | TGI (UACC-62 melanoma): > 100 µM | GI50 (HOP-62 NSCLC): > 100 µM | TGI (HOP-62 NSCLC): > 100 µM | GI50 (HOP-92 NSCLC): 19.8 µM | TGI (HOP-92 NSCLC): > 100 µM | GI50 (IGROV1 ovarian): 5.06 µM | TGI (IGROV1 ovarian): 27 µM | GI50 (HT29 colon): 33.2 µM | TGI (HT29 colon): > 100 µM

CN(C)c1ncc(-c2ccc(C(F)(F)F)cc2)c(NC2CCCCCC2)n1
GI50 (HCC-2998 colon): 13.8 µM | TGI (HCC-2998 colon): 28.8 µM | GI50 (SF-295 CNS): 17.5 µM | TGI (SF-295 CNS): 37.4 µM | GI50 (UO-31 renal): 12.6 µM | TGI (UO-31 renal): 35.2 µM | GI50 (SNB-75 CNS): 20.6 µM | TGI (SNB-75 CNS): 93.8 µM | GI50 (UACC-62 melanoma): 14.7 µM | TGI (UACC-62 melanoma): 35.7 µM | GI50 (HOP-62 NSCLC): 24.5 µM | TGI (HOP-62 NSCLC): 61 µM | GI50 (IGROV1 ovarian): 32.5 µM | TGI (IGROV1 ovarian): > 100 µM | GI50 (HT29 colon): 11.4 µM | TGI (HT29 colon): 32.9 µM

CC(C)C1CC2C(=O)N(c3ccccc3)C(=O)C2c2[nH]c3ccccc3c21 (stereo not drawn)
TGI (HCC-2998 colon): > 100 µM | TGI (SF-295 CNS): 65.5 µM | TGI (UO-31 renal): 80.4 µM | TGI (SNB-75 CNS): 23.5 µM | TGI (UACC-62 melanoma): > 100 µM | TGI (HOP-62 NSCLC): > 100 µM | TGI (IGROV1 ovarian): > 100 µM | TGI (HT29 colon): > 100 µM

O=C(/C=C/C=C/c1c(C2CC2)nc2ccccc2c1-c1ccc(F)cc1)c1cccs1
GI50 (HCC-2998 colon): 1.99 µM | TGI (HCC-2998 colon): 4.95 µM | GI50 (SF-295 CNS): 1.95 µM | TGI (SF-295 CNS): 5.97 µM | GI50 (UO-31 renal): 1.16 µM | TGI (UO-31 renal): 3.05 µM | GI50 (SNB-75 CNS): > 100 µM | TGI (SNB-75 CNS): > 100 µM | GI50 (UACC-62 melanoma): 1.46 µM | TGI (UACC-62 melanoma): 6.64 µM | GI50 (HOP-62 NSCLC): 2.74 µM | TGI (HOP-62 NSCLC): 7.25 µM | GI50 (HOP-92 NSCLC): 1.83 µM | TGI (HOP-92 NSCLC): 8.6 µM | GI50 (IGROV1 ovarian): 1.59 µM | TGI (IGROV1 ovarian): > 100 µM | GI50 (HT29 colon): 1.49 µM | TGI (HT29 colon): 5.47 µM

Cc1ccc(C2NC(=O)c3ccccc3N2)s1 (stereo not drawn)
TGI (HCC-2998 colon): 39.7 µM | TGI (SF-295 CNS): 6.87 µM | TGI (UO-31 renal): > 100 µM | TGI (LOX IMVI melanoma): > 100 µM | TGI (UACC-62 melanoma): > 100 µM | TGI (HOP-62 NSCLC): > 100 µM | TGI (IGROV1 ovarian): > 100 µM
